This note sets out measurements from PubChem BioAssay (NCI).

Values joined by “and” are separate entries in the source; they are usually repeats but may differ in a detail not shown here. Equal values may be shown once.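 Five concentrations, 48 hours, 96-well plates. GI50 marks 50% less growth. At the TGI there is no net growth.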 Some results are limits rather than exact numbers.

Test systems include SF-539 CNS; M14 melanoma; RPMI-8226 leukemia; SK-MEL-5 melanoma; PC-3 prostate; SF-268 CNS; MALME-3M melanoma; SK-MEL-2 melanoma; HOP-62 NSCLC; LOX IMVI melanoma.
What all share (test): NCI tumour cell line growth inhibition, 48 h

Regarding `NS(=O)(=O)c1ccc(-c2ccc3c(NC(=O)C4CC4)n[nH]c3c2)cc1`, the GI50 in the assay on SF-539 CNS, in the assay on M14 melanoma, with RPMI-8226 leukemia, in the assay on SK-MEL-5 melanoma, in the assay on PC-3 prostate and in the assay with SF-268 CNS was above 25 µM each time. Moreover, the GI50 with MALME-3M melanoma, in the assay with SK-MEL-2 melanoma, in the assay on HOP-62 NSCLC and with LOX IMVI melanoma was above 25 µM throughout. For the same compound, the TGI in the assay with SF-539 CNS, in the assay with M14 melanoma, with RPMI-8226 leukemia, in the assay on SK-MEL-5 melanoma, in the assay with PC-3 prostate and with SF-268 CNS was above 25 µM throughout. Besides, the TGI in the assay with MALME-3M melanoma, in the assay with SK-MEL-2 melanoma, in the assay with HOP-62 NSCLC and in the assay with LOX IMVI melanoma was above 25 µM throughout.
With `COc1cc2c(cc1OCCCCC(=O)Nc1cc3c4ccccc4ccc3c3ccccc13)N=C[C@@H]1CCCN1C2=O`, the GI50 was 2.22 µM in the assay on SF-539 CNS; 8.1 µM with M14 melanoma; 1.11 µM in the assay on RPMI-8226 leukemia; 2.93 µM in the assay with SK-MEL-5 melanoma; 5.4 µM in the assay with PC-3 prostate; 2.67 µM in the assay on SF-268 CNS. Also, the GI50 in the assay on MALME-3M melanoma was 3.85 µM; with SK-MEL-2 melanoma, 8.4 µM; in the assay with HOP-62 NSCLC, 10.1 µM; in the assay on LOX IMVI melanoma it was 32.1 µM. For the same compound, the TGI in the assay on SF-539 CNS is 9.06 µM; in the assay with M14 melanoma, 33 µM; with SK-MEL-5 melanoma it was 7.61 µM; in the assay with PC-3 prostate, above 65.9 µM; with SF-268 CNS, 15 µM; in the assay with MALME-3M melanoma, 16 µM. For the same compound, the TGI in the assay with SK-MEL-2 melanoma is 58.8 µM; in the assay on HOP-62 NSCLC, 40.8 µM; with LOX IMVI melanoma it was above 100 µM.
`COc1ccc(-c2[nH]c3ccc(OC)cc3c2/C=C(\C#N)S(=O)(=O)c2ccccc2)cc1`: the GI50 is 0.495 µM in the assay on SF-539 CNS; 0.494 µM in the assay on M14 melanoma; 1.28 µM with RPMI-8226 leukemia; 0.319 µM in the assay on SK-MEL-5 melanoma; 0.533 µM with PC-3 prostate; 1.56 µM in the assay on SF-268 CNS. Besides, the GI50 is 3.13 µM in the assay on MALME-3M melanoma, 6.42 µM with SK-MEL-2 melanoma, 2.97 µM in the assay on HOP-62 NSCLC and 1.15 µM with LOX IMVI melanoma. The TGI was 2.51 µM with SF-539 CNS; 18.2 µM in the assay with M14 melanoma; 6.64 µM with RPMI-8226 leukemia; 2.39 µM with SK-MEL-5 melanoma; 23.6 µM in the assay on PC-3 prostate; above 100 µM with SF-268 CNS. In addition, the TGI with MALME-3M melanoma is above 82.2 µM; in the assay with SK-MEL-2 melanoma, above 69.3 µM; in the assay on HOP-62 NSCLC, 48.1 µM; with LOX IMVI melanoma it was above 100 µM.
Take `COc1ccc(C2=C(Cl)c3cc(OC)c(OC)cc3C2Cl)cc1` (centres undefined): the TGI in the assay on SF-539 CNS was 30.8 µM; in the assay on M14 melanoma, 37.1 µM; in the assay on RPMI-8226 leukemia, above 66.3 µM; with SK-MEL-5 melanoma it was 27.5 µM; with PC-3 prostate it was 26.3 µM; in the assay on SF-268 CNS, 36 µM. The TGI in the assay on MALME-3M melanoma was 46.9 µM; with SK-MEL-2 melanoma, 26.3 µM; in the assay with HOP-62 NSCLC, 32.2 µM; with LOX IMVI melanoma, 27.5 µM.
`CN1CCN(CCCNc2nc3ccc(Oc4ccc(NC(=O)Nc5cc(C(F)(F)F)ccc5F)cc4)cc3[nH]2)CC1`: the GI50 in the assay on SF-539 CNS was 4.22 µM; in the assay on M14 melanoma it was 4.54 µM; in the assay with RPMI-8226 leukemia it was 5.88 µM; in the assay on SK-MEL-5 melanoma it was 3.66 µM; with PC-3 prostate, 4.82 µM; in the assay on SF-268 CNS it was 4.17 µM. For the same compound, the GI50 was 4.69 µM with MALME-3M melanoma, 4.64 µM in the assay on SK-MEL-2 melanoma, 3.84 µM in the assay with HOP-62 NSCLC and 4.25 µM with LOX IMVI melanoma. The TGI was 8.52 µM in the assay on SF-539 CNS; 8.61 µM with M14 melanoma; 14 µM in the assay on RPMI-8226 leukemia; 7.01 µM with SK-MEL-5 melanoma; 10.6 µM in the assay with PC-3 prostate; 8.04 µM with SF-268 CNS. Further, the TGI in the assay on MALME-3M melanoma amounted to 9.67 µM; in the assay with SK-MEL-2 melanoma, 8.66 µM; in the assay with HOP-62 NSCLC, 7.25 µM; in the assay on LOX IMVI melanoma it was 7.91 µM.
As to `c1ccc(Sc2ccc(Cc3nc4cc5ccccc5cc4[nH]3)cc2)cc1`, the GI50 with SF-539 CNS is 1.34 µM; with M14 melanoma, 21 µM; in the assay with RPMI-8226 leukemia it was 3.77 µM; with SK-MEL-5 melanoma, 2.88 µM; in the assay on PC-3 prostate, 4.56 µM; in the assay with SF-268 CNS, 8.48 µM. In addition, the GI50 in the assay with MALME-3M melanoma was 9.93 µM; in the assay on SK-MEL-2 melanoma, 53.6 µM; with HOP-62 NSCLC, 8.71 µM; in the assay on LOX IMVI melanoma, 1.42 µM. The TGI in the assay with SF-539 CNS is 19.5 µM; in the assay with M14 melanoma it was above 74.5 µM; in the assay with RPMI-8226 leukemia it was 49.7 µM; with SK-MEL-5 melanoma, 18.4 µM; in the assay with PC-3 prostate it was above 64.3 µM; in the assay with SF-268 CNS, above 100 µM. Besides, the TGI in the assay with MALME-3M melanoma is 66.7 µM; in the assay with SK-MEL-2 melanoma it was above 100 µM; in the assay with HOP-62 NSCLC it was above 75.5 µM; in the assay on LOX IMVI melanoma, 29.1 µM.
Take `CC1=CC(=O)C=CC1=O`: the GI50 in the assay on SF-539 CNS is 29.3 µM and 17 µM; with M14 melanoma, 22.7 µM and 20.5 µM; with RPMI-8226 leukemia it was 5.11 µM and 3.32 µM; with SK-MEL-5 melanoma, 29.3 µM and 13.4 µM; in the assay with PC-3 prostate it was 15.7 µM; in the assay on SF-268 CNS it was 16.5 µM. Further, the GI50 with MALME-3M melanoma was 13.1 µM and 13.7 µM; with SK-MEL-2 melanoma, 50.7 µM and 23.8 µM; in the assay with HOP-62 NSCLC, 35.9 µM and 25.3 µM; in the assay with LOX IMVI melanoma it was 17.9 µM and 14.4 µM. Further, the TGI in the assay with SF-539 CNS is 31.4 µM; in the assay with M14 melanoma, 67.1 µM and 48.5 µM; with RPMI-8226 leukemia it was 39.9 µM and 102 µM; in the assay on SK-MEL-5 melanoma it was 26.3 µM; in the assay on PC-3 prostate it was 39.4 µM; in the assay on SF-268 CNS, 31.2 µM. The TGI in the assay with MALME-3M melanoma is 29.7 µM and 27.8 µM; with SK-MEL-2 melanoma, 66.3 µM; with HOP-62 NSCLC it was 75.3 µM; in the assay on LOX IMVI melanoma it was 42.6 µM and 28 µM.
